From US20240324627A1, “USE OF A FEED ADDITIVE IN LOW ENERGY FEED FOR PIGS” (Alzchem Trostberg GmbH, priority 2021, published 2024)

Assays:
[1] = test system: pigs; conditions: Weber et al. 2017, cited from earlier work
[2] = test system: fattening pigs; assay: 39-day feeding experiment in fattening pigs with low energy feed; type: in vivo
From the text: In a 39-day feeding experiment, three different feed concepts were fed to fattening pigs with an initial weight of ˜65 kg. For each feeding concept, 80 pigs in 16 pens (5 animals per pen) were examined. The pens were exclusively occupied by animals of the same gender, i.e. females or non-castrated boars, in a 1:1 gender ratio. The three different feed groups were optimized for the content of metabolic energy (ME) and the other raw nutrients based on the supply recommendations of the NRC (National Research Council of the National Academies, 2012: Nutrient requirements of Swine/Committee on Nutrient Requirements of Swine, Board on Agriculture and Natural Resources, Division on Earth and Life Studies.-11th rev. ed. p. cm.). A positive control group with 13.0 MJ ME covering the energy requirements was compared with a negative control group with 12.8 MJ ME reduced by 0.2 MJ. In a guanidinoacetic acid group supplemented with 600 g/t, an energy content of 12.7 MJ ME was adjusted. The fattening phase lasted 39 days. On day 40, the animals that had already reached the slaughter weight of ˜108 kg were slaughtered. For this reason, data was recorded on this day. The rations were based on wheat, wheat semolina bran, rapeseed extraction meal and soy extraction meal. Animal fat was also added in relevant amounts. The diets were isonitrogenous, i.e. the supply of crude protein and digestible amino acids was identical in all three treatment groups. [table] Feed conversion is the amount of feed consumed that leads to a weight gain of the animal of one kilogram. Energy utilization is the energy intake per kilogram of weight gain.

[3] = 600 g/t (0.06%) in 12.7 MJ ME/kg feed

N=C(N)NCC(=O)O [guanidinoacetic acid, Guanidinoacetic acid]
Feed uptake ([1]; addition to high energy feed): slightly lower
Daily increase (weight gain) ([1]; common feed): only a slight daily increase at the threshold of significance
Feed conversion ([1]; common feed): slight improvement
Daily feed intake, day 1-39 [2, 3]: 2223 g
Daily weight gain, day 1-39 [2, 3]: 828 g
Energy utilization, day 1-39 [2, 3]: 34.2 MJ ME/kg gain
Feed conversion, day 1-39 [2, 3]: 2.69 kg feed/kg gain
Live weight, day 39 [2, 3]: 96.2 kg
Average slaughter weight ([2]; 600 g/t in 12.7 MJ ME/kg feed): 107.3 kg
Daily weight gains in the fattening phase ([2]; 600 g/t in 12.7 MJ ME/kg feed): approximately 830 g/d
Energy deficit compensated ([2]; addition of 600 g/t, daily feed intake at level of positive control): 0.2 MJ ME
Improvement of feed conversion ratio compared to the negative control ([2]; fattening phase, vs 12.8 MJ ME negative control): 23 points
Improvement of feed conversion ratio compared to the positive control ([2]; fattening phase, vs 13.0 MJ ME positive control): 6 points
Less energy required per kg gain vs negative control ([2]; fattening phase, vs negative control): 4.3 MJ ME
Less energy required per kg gain vs positive control ([2]; fattening phase, vs positive control): 2.1 MJ ME
Average number of fattening days (from the start of the fattening phase) ([2]; until slaughter, 600 g/t in 12.7 MJ ME/kg feed): 52
Energy utilization improvement ([2]; vs positive control): approximately 5.8%
Feed conversion improvement ([2]; vs positive control): approximately 2.2%
